Values joined by “and” are separate entries in the source; they are usually repeats but may differ in a detail not shown here. Identical values can stand only once.
Key:
rat NPRA = target: T1, rat NPRA (Rattus norvegicus, UniProt P18910); experiment: Rat NPRA cGMP activity assay (HTRF) in HEK293 cells overexpressing NPRA; assay type: cell-based; conditions: assay buffer with 0.1% casein, read-out: cGMP Assay (EC50, pM) w/Casein rNPRA
T1 construct: Full-Length cDNA Cloning and Generation of Cell Lines Overexpressing Natriuretic Peptide Receptors (NPRs); expressed in transfected cells; host or cells: Jump-in T-Rex HEK293 cells, pJTI R4 CMV-TO MCS pA vector, tetracycline induction
T1 sequence (P18910 29-1057): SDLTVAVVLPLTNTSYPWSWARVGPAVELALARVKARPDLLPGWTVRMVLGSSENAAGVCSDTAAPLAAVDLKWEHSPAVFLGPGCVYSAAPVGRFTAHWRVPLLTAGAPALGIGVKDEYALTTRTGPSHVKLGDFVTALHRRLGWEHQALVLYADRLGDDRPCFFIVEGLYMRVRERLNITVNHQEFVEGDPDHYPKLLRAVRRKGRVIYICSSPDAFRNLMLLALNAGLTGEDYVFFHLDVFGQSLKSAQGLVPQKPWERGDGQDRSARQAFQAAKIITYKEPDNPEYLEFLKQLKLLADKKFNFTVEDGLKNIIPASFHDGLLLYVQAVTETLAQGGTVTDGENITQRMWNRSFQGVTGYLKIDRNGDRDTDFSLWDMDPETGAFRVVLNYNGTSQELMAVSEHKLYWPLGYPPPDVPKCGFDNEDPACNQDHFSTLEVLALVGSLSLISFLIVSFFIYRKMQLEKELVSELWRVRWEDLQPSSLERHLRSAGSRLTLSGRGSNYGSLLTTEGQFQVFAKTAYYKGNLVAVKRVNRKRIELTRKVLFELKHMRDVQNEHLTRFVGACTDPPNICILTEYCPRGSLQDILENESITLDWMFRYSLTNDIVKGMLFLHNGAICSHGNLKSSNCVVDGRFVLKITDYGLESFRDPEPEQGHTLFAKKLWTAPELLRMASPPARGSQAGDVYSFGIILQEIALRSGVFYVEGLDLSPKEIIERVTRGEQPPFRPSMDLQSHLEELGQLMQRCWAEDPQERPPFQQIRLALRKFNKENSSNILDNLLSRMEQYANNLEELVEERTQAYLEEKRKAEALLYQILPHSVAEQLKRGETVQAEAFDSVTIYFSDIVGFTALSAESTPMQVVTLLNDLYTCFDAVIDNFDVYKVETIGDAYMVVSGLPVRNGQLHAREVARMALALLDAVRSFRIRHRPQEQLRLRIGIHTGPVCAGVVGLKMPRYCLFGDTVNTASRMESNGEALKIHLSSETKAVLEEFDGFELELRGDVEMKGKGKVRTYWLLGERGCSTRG
In short: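 Tetracycline-induced (300 ng/mL, 48 h) T-Rex HEK293 cells expressing NPRA, 4000 cells/well, treated 40 min at room temperature with polypeptide (8 points, 10 μM to 1 pM) in HBSS/HEPES buffer with 0.5 mM IBMX, pH 7.4. cGMP by HTRF, normalised to 100 nM amidated rat ANP and buffer.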

SAUNA Mouse Model = experiment: Salty drinking water/Unilateral Nephrectomy/Aldosterone (SAUNA) mouse model of heart failure; assay type: in vivo, male C57BL/6N mice; conditions: SAUNA mice, once daily SC 0.4 mg/kg
Source text: The effect of Exemplary ANP polypeptides is investigated in the Salty drinking water/Unilateral Nephrectomy/Aldosterone (SAUNA) Mouse Model, murine model of heart failure induced by chronic aldosterone infusion. After acclimation for approximately 2 weeks, heart failure is induced in male C57BL/6N (Taconic) mice by uninephrectomy, continuous d-aldosterone infusion and 1.0% sodium chloride in drinking water for 4 weeks (Tanaka et al., 2016; Valero-Munoz, Li, Wilson, Boldbaatar, et al., 2016; Valero-Munoz, Li, Wilson, Hulsmans, et al., 2016; Yang, Kong, Shuai, Zhang, & Huang, 2020; Yoon et al., 2021). […] The pressure volume (PV) catheter is introduced into the left ventricle via apical stab with a 27G needle. Calibration of the PV catheter is performed according to the manufacturer's instructions. Data are analyzed with LabChart pro software (AD Instruments). After PV loop measurements, mice are sacrificed, and ratio of heart weight to tibia length is used for indicator of hypertrophy.

[1] = Pharmacokinetics in male Sprague Dawley rats; assay type: in vivo; conditions: rat, sc, mean, single subcutaneous administration of 200 nMol/kg, plasma
Procedure: The pharmacokinetics of the exemplary analogs are evaluated following a single subcutaneous administration of […] to male Sprague Dawley rats. Blood samples are collected over 120 hours, and resulting individual plasma concentrations are used to calculate pharmacokinetic parameters. Peptide plasma (K3 EDTA) concentrations are determined using a qualified LC/MS method that measured the intact mass of the ANP polypeptide. Each peptide and an analog as an internal standard are extracted from 100% specie specified plasma using methanol with 0.1% formic acid. A Thermo Q-Exactive, High Resolution Instrument, and a Thermo Easy Spray PepMap are combined for LC/MS detection.

human NPRA (human) = human NPRA (human) (UniProt P16066); experiment: cell-based or functional assay
Chain of human NPRA (human) (P16066 33-1061): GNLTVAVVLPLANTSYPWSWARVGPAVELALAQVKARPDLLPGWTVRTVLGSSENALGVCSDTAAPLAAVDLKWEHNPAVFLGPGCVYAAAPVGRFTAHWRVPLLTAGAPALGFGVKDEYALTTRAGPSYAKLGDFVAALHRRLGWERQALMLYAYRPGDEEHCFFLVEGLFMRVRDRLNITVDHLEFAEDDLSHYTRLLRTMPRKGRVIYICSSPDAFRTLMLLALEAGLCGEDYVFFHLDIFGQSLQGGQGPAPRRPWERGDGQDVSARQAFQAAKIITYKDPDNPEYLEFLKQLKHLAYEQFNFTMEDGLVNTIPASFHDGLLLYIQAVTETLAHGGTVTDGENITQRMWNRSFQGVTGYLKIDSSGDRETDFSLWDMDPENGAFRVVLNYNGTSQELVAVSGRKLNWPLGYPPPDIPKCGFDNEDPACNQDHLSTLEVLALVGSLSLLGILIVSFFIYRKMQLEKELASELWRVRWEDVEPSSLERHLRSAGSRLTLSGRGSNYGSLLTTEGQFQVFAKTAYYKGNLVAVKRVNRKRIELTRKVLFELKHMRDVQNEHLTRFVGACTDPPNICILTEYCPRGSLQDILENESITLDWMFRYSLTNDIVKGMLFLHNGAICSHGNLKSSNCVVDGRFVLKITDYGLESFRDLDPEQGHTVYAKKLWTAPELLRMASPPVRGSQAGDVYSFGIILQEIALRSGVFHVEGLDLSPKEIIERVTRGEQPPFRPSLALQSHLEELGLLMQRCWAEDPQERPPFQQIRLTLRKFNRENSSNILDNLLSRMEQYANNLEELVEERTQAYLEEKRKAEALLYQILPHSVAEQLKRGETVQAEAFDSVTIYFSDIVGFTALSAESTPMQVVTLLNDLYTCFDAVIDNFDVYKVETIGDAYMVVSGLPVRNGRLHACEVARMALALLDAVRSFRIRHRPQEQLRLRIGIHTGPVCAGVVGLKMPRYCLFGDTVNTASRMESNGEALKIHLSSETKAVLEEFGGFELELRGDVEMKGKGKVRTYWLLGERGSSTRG

[2] = target: human NPRB (natriuretic peptide receptor B) (human) (UniProt P20594); experiment: cell-based or functional assay
Chain of human NPRB (natriuretic peptide receptor B) (human) (P20594 23-1047): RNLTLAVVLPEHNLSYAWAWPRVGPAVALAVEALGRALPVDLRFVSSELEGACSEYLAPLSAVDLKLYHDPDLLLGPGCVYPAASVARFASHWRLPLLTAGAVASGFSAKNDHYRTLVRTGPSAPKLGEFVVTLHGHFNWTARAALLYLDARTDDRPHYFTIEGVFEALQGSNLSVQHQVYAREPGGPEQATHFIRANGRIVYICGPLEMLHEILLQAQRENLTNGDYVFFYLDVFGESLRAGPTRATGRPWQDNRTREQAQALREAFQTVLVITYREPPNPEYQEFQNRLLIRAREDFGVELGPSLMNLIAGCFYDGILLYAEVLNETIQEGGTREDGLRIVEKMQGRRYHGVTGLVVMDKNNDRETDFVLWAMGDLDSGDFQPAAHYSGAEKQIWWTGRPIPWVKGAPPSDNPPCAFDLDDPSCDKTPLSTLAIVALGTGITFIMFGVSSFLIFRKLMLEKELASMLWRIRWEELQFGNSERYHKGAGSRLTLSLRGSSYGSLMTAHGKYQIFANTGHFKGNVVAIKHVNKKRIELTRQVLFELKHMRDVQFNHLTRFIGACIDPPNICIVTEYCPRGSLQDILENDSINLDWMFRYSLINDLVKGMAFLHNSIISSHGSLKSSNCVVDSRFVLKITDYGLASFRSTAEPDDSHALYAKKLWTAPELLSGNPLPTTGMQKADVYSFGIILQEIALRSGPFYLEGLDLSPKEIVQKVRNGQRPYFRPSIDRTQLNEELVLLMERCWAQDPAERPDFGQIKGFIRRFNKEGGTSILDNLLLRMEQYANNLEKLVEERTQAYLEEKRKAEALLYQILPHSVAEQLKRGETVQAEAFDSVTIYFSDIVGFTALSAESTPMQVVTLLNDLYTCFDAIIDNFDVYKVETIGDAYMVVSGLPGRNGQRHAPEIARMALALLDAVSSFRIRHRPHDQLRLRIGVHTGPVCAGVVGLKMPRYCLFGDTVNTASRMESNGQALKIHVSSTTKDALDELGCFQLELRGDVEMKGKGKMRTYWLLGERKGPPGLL

[3] = target: rat NPRB (natriuretic peptide receptor B) (rat) (UniProt P16067); experiment: cell-based or functional assay
Chain of rat NPRB (natriuretic peptide receptor B) (rat) (P16067 17-1047): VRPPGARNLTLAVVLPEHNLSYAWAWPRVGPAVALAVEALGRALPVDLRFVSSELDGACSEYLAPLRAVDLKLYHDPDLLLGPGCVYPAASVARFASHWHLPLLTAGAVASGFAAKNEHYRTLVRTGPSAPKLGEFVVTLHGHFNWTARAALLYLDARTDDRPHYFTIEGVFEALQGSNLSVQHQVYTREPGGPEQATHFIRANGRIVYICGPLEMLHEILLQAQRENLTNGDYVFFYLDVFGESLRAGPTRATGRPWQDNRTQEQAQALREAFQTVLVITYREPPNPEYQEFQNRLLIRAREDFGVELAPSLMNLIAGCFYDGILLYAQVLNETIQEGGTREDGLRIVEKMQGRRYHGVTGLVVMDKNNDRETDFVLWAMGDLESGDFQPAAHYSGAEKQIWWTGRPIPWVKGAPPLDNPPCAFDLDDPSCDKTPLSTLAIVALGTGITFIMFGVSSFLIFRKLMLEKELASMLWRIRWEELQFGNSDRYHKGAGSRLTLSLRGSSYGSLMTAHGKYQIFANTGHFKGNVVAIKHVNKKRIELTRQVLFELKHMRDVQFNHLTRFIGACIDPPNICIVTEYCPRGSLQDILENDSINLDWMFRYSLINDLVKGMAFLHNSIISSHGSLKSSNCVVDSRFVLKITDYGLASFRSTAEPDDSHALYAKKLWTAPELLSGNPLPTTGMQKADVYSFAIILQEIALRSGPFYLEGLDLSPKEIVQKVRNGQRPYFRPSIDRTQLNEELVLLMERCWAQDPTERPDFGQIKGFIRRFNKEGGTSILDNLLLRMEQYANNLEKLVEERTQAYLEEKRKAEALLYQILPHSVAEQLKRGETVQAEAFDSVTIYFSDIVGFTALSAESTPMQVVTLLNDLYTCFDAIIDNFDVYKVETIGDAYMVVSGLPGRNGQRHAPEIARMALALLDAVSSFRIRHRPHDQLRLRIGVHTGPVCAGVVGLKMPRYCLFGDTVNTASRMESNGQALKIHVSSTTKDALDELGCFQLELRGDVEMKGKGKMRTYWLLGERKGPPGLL

For `CC[C@H](C)[C@@H]1NC(=O)[C@H](CCCNC(=N)N)NC(=O)[C@H](CC(=O)O)NC(=O)[C@H]([C@@H](C)CC)NC(=O)[C@H](CCCNC(=N)N)NC(=O)CNC(=O)CNC(=O)[C@H](Cc2ccccc2)NC(=O)[C@@H](NC(=O)[C@H](CO)NC(=O)[C@H](CO)NC(=O)[C@H](CCCNC(=N)N)NC(=O)[C@H](CCCNC(=N)N)NC(=O)[C@H](CC(C)C)NC(=O)[C@H](CO)NC(=O)CNC(=O)[C@H](CCCCN)NC(=O)[C@H](CCC(=O)O)NC(=O)[C@H](CCCCN)NC(=O)[C@H](CCC(=O)O)NC(=O)[C@H](CCCCN)NC(=O)[C@H](CCC(=O)O)NC(=O)CC[C@H](NC(=O)CCCCCCCCCCCCCCCCCCC(=O)O)C(=O)O)CSSC[C@@H](C(=O)N[C@@H](CC(N)=O)C(=O)N[C@@H](CO)C(=O)N[C@@H](Cc2ccccc2)C(=O)N[C@@H](CCCNC(=N)N)C(=O)N[C@@H](Cc2ccc(O)cc2)C(N)=O)NC(=O)CNC(=O)[C@H](CC(C)C)NC(=O)CNC(=O)[C@H](CO)NC(=O)[C@H](CCC(N)=O)NC(=O)[C@H](C)NC(=O)CNC1=O` [Example 8], which EC50 (rat NPRA) is on record?
Its EC50 is 493 pM.

What about the blood pressure (SAUNA Mouse Model) of the same compound?
Its blood pressure is “decrease in blood pressure”.

What about the “left ventricle diastolic pressure” value (SAUNA Mouse Model; PV catheter) of the same compound?
Its value is “reduced left ventricle diastolic pressure”.

And the “heart weight and tibia length” value (SAUNA Mouse Model; indicator of hypertrophy)?
The value was “decrease”.

What about the CL/F [1] of the same compound?
Its CL/F is 0.698 mL/min/kg.

What about the half-life ([1]; read-out: t½ (converted)) of the same compound?
Its half-life is 15 h.

With “HOOC-(CH2)18-CO-(γGlu)-EKEKEKG-PEG24-EK-βAla-RSS[…]PSFRHGGP-NH2 (peptide)” as the compound, how does the cGMP Assay (EC50, pM) w/BSA, hNPRA (human NPRA (human)) read?
The cGMP Assay (EC50, pM) w/BSA, hNPRA was 2960 pM and 1270 pM.

And the cGMP Assay (EC50, pM) w/Casein, hNPRA (human NPRA (human))?
Its cGMP Assay (EC50, pM) w/Casein, hNPRA is 1010 pM and 669 pM.

With “human CNP-22 (from UniProt P23582 105-126) (peptide)” as the compound, how does the cGMP production (HTRF) in HEK293 cells overexpressing NPRB; concentration that defines the 100% response [2] read?
The cGMP production (HTRF) in HEK293 cells overexpressing NPRB; concentration that defines the 100% response was 1 µM.

What about the cGMP production (HTRF) in HEK293 cells overexpressing NPRB; concentration that defines the 100% response [3] of the same compound?
Its cGMP production (HTRF) in HEK293 cells overexpressing NPRB; concentration that defines the 100% response is 1 µM.

— US20240174727A1, “LONG-ACTING NATRIURETIC PEPTIDES AND USES THEREOF” (Eli Lilly and Company, priority 2022, published 2024)
